Source: patent publication US20050192227A1, “Method for reducing the risk of cancer” (priority 1999, published 2005)

How the values were obtained:
[1] = tested on: MCF-7; settings: ER+ breast cancer cell line MCF-7, in vitro; cited from earlier work
[2] = tested on: detectable tumors; assay: Clinical trial of rhPTH(1-34) in postmenopausal women: incidence of cancer (patients with detectable tumors); type: in vivo, human; settings: for number of patients with detectable tumors, breast carcinoma: 17-23 months, placebo 7; for number of patients with detectable tumors, skin carcinoma: placebo 5; for number of patients with detectable tumors, all cancers except breast carcinoma: placebo 16; for number of patients with detectable tumors, all cancers: placebo 21
Method: • Number of Subjects: rhPTH(1-34): 1093 enrolled, 848 finished. • Placebo: 544 enrolled, 447 finished. • Diagnosis and Inclusion Criteria: Women ages 30 to 85 years, postmenopausal for a minimum of 5 years, with a minimum of one moderate or two mild atraumatic vertebral fractures. • Dosage and Administration: Test Product (blinded) • rhPTH(1-34): 20 μg/day, given subcutaneously • rhPTH(1-34): 40 μg/day, given subcutaneously • Reference Therapy (blinded) • Placebo study material for injection • Duration of Treatment: rhPTH(1-34): 17-23 months (excluding 6-month run-in phase) • Placebo: 17-23 months (excluding 6-month run-in phase)
Criteria for Evaluation: Spine x-ray; serum biological markers (calcium, bon-specific alkaline phosphatase, procollagen I carboxy-terminal propeptide); urine markers (calcium, N-telopeptide, free deoxypyridinoline); 1,25-dihydroxyvitanin D; bone mineral density: spine, hip, wrist, and total body; height; population pharmacokinetics; bone biopsy (selected study sites).
Table 1 illustrates data showing the reduction in the number of patients having detectable tumors upon treatment with PTH.

[3] = tested on: biochemical bone markers; assay: Applicant's dose studies in human subjects: changes in biochemical bone markers; type: in vivo
Method: (§1) Therefore, for reducing risk on cancer in men or women with hPTH(1-34) according to the present invention, preferably one should use a daily dose greater than about 6 μg, more preferably at least about 15 μg. […] Therefore, any daily dose of hPTH(1-34) in the range of greater than about 6 μg to at least about 40 μg would be effective for reduction of the risk of cancer, according to the present method of using this form of parathyroid hormone. […] Accordingly, the present invention provides a method for reducing the risk of cancer in a human subject at risk thereof, comprising administering to the subject a parathyroid hormone. Preferably, the parathyroid hormone consists of amino acid sequence 1-34 of human parathyroid hormone. This hormone may be administered with or without concurrent administration of an antiresorptive agent other than vitamin D or calcium. Preferably, the hormone is administered in a daily dose in the range of about 15 μg to about 40 μg, for at least about 12 months. In this method for reducing the risk of cancer, the hormone may be administered for longer periods of several years (e.g., up to 3 years as in osteoporotic patients), including for the remaining life of a human subject identified as having a high risk of cancer.

[4] = Effectiveness of daily doses against osteoporosis in men and women; type: in vivo, human; settings: daily doses of 20 μg and 40 μg compared
[5] = Undesirable side effects of daily doses in human subjects; type: in vivo; settings: daily dose of about 20 μg compared with about 40 μg
Method: as §1

Substance	response of MCF-7 cells to PTHrP [1]	number of patients with detectable tumors, breast carcinoma ([2]; PTH-20 (20 μg/day s.c., N = 541), p=0.017)	number of patients with detectable tumors, skin carcinoma ([2]; PTH-20 (20 μg/day s.c., N = 541), p=0.532)	number of patients with detectable tumors, all cancers except breast carcinoma ([2]; PTH-20 (20 μg/day s.c., N = 541))	number of patients with detectable tumors, all cancers ([2]; PTH-20 (20 μg/day s.c., N = 541), p=0.03)	number of patients with detectable tumors, breast carcinoma ([2]; PTH-40 (40 μg/day s.c., N = 522), p=0.017)	number of patients with detectable tumors, skin carcinoma ([2]; PTH-40 (40 μg/day s.c., N = 522), p=0.532)	number of patients with detectable tumors, all cancers except breast carcinoma ([2]; PTH-40 (40 μg/day s.c., N = 522))	number of patients with detectable tumors, all cancers ([2]; PTH-40 (40 μg/day s.c., N = 522), p=0.03)	percentage of patients with any form of detectable cancer ([2]; all PTH-treated patients (20 and 40 μg/day pooled) vs. placebo 3.86%, p=0.03)	percentage of patients with skin carcinoma ([2]; all PTH-treated patients pooled vs. placebo 0.919%, p=0.532)	percentage of patients with breast carcinoma ([2]; all PTH-treated patients pooled vs. placebo 1.29%, p=0.017)	percentage of patients with any form of detectable cancer, excluding breast carcinoma ([2]; all PTH-treated patients pooled vs. placebo 2.94%)	lowest tested dose found to be biologically active, as indicated by detectable changes in biochemical bone markers [3]	effects on biochemical bone markers ([3]; 6 μg dose)	effectiveness against osteoporosis [4]	undesirable side effects [5]
PTHrP: PTH-related peptide/protein	proliferates																
rhPTH(1-34)		1	2	7	8	1	4	10	11	1.79%	0.564%	0.188%	1.60%	about 15 μg	no significant effects	similarly effective	fewer undesirable side effects
